In US20190030053A1, “COMPOSITION FOR INCREASING EXPRESSION OF PGC-1alpha” (BENEBIOSIS CO., LTD., priority 2016, published 2019):
“Also recorded” adds a separate entry of the source.

Key:
PGC-1α and related genes [1] = experiment: Gene expression in nerve cell test (Neuro-2a); assay type: cell-based, mouse; conditions: Neuro-2a cells, 0.1 mg/ml, 24 hours
Procedure: Neuroblasts (Neuro-2a, American Type Culture Collection, USA) were cultured in DMEM supplemented with 10% fetal bovine serum, […], and 0.1 mg/mL streptomycin in each well of 6-well plates at 37° C. in 5% CO2/95% atmospheric conditions. Neuro-2a cells correspond to the fast-growing mouse neuroblastoma cell line. After Neuro-2a cells were seeded at a density of 6000 cells per well, SL was added at a concentration of 0.1 mg/ml into the wells showing a confluency of about 5×10^6 cells/ml, followed by incubation for 24 hours under the same conditions. SL (3′-SL or 6′-SL) materials were the same as those described in Example 1. Unless otherwise stated, SL (3′-SL or 6′-SL) and the use concentrations thereof are understood to be the same as those described in Example 1. The negative control group was treated with physiological saline with 1/1000 of the volume of the medium. The cells treated with each sample were incubated at 37° C. for 24 hours, and then washed twice with cool saline solution, and RNA was extracted using TRIzol agent (Invitrogen). The expression patterns of PGC-1α and related genes were measured by using pre-designed primers and probes (Applied Biosystems; PGC-1α, Mm00447181_m1, GAPDH, and Mm99999915_q1) for the synthesized cDNA and analysis targets (Fndc5, PGC-1α, Erra, UCP1, BDNF, SOD2, and GPX1). […]

PGC-1α and related genes [2] = experiment: Gene expression in brain and hippocampus of Alzheimer's disease models; assay type: in vivo, mouse; conditions: 3×Tg mice, oral 0.1 mg/kg/day, 10 weeks
Source text: In order to investigate the changes in gene expression and cognitive ability by the treatment with SL (3′-SL & 6′-SL) compositions in Alzheimer's brain disease models, 6-week-old mice were purchased from Central Lab Animal (Korea). Water was freely accessible, and a commercially available pellet feed (Dooyeul Biotech, Korea) was given for two weeks. At 8 weeks of age, the mice were divided into three groups (composed of eight mice for each group): Eight 8-week-old male c57/BL6 mice (normal mice; initial body weight, average 35.6±3.3 g) treated with a normal diet were used for a control group. […]
Sialyllactose or DW was orally administered daily. […] The dietary intake and body weight change were measured every 5 days. […]
The gene expression changes by the treatment with SL (3′-SL & 6′-SL) compositions were quantitatively compared in two main organs (brain and hippocampus) associated with bran diseases. […] RNA was extracted by TRIzol agent (Invitrogen). cDNA was synthesized by using RNA, which has been extracted as above and quantified, and a reverse transcription system (Promega, USA). The expression patterns of PGC-1α and related genes were measured by using pre-designed primers and probes (Applied Biosystems; PGC-1α, Mm00447181_m1, GAPDH, and Mm99999915_q1) for the synthesized cDNA and analysis targets (Fndc5, PGC-1α, Erra, UCP1, BDNF, SOD2, and GPX1). […]

[3] = test system: skin test model (HRM2) mice; experiment: Skin tests (UV irradiation, skin sensitivity, skin irritation, subcutaneous absorption) in skin test model mice; assay type: in vivo, mouse; conditions: oral 0.1 mg/kg/day, 10 weeks
Source text: In order to investigate the gene expression chages by body parts by the treatment with the SL (3′-SL & 6′-SL) compositions in skin test models, 6-week-old male skin test model (HRM2) mice (hairless appearance containing melanin) were randomly grouped into three different dietary treatment groups (8 animals per group, a total of 24 animals) below, and the diets (AIN-76A, Dyets, USA) were maintained for 10 weeks. The UV irradiation (black spot, wrinkle test), skin sensitivity test, skin irritation test, subcutaneous absorption test, or the like were conducted using a portable color-difference meter (CR-10, Minolta, Japan): • Control group: Group fed with a normal diet (8 animals) • 3′-SL administration group: Models treated with 3′-sialyllactose (3′-SL, Sigma) (oral administration of 0.1 mg per kg of mouse weight per day) in addition to the normal diet group (8 animals) • 6′-SL administration group: Models treated with 6′-sialyllactose (6′-SL, Sigma) (oral administration of 0.1 mg per kg of mouse weight per day) in addition to the normal diet group (8 animals)

SMILES | expression levels of analysis targets (Fndc5, PGC-1α, Erra, UCP1, BDNF, SOD2, GPX1) vs negative control (PGC-1α and related genes [1]) | expression levels of PGC-1α and related genes vs SL non-administration (Alzheimer's disease model) group (PGC-1α and related genes [2]) | expression levels of PGC-1α and related genes vs normal control group (PGC-1α and related genes [2]) | skin state in UV irradiation (black spot, wrinkle test), skin sensitivity, skin irritation, subcutaneous absorption tests vs control [3]
CC(=O)N[C@H]1[C@H]([C@H](O)[C@H](O)CO)O[C@@](OC[C@H]2O[C@@H](O[C@H]3[C@H](O)[C@@H](O)[C@H](O)O[C@@H]3CO)[C@H](O)[C@@H](O)[C@H]2O)(C(=O)O)C[C@@H]1O [6′-SL, α-NeuNAc-(2→6)-β-D-Gal-(1→4)-D-Glc] | significant increases | very high | somewhat lower | much improved skin
CC(=O)N[C@H]1[C@H]([C@H](O)[C@H](O)CO)O[C@@](O[C@H]2[C@@H](O)[C@@H](CO)O[C@@H](O[C@H]3[C@H](O)[C@@H](O)C(O)O[C@@H]3CO)[C@@H]2O)(C(=O)O)C[C@@H]1O (stereo partly drawn) [3′-SL, α-NeuNAc-(2→3)-β-D-Gal-(1→4)-D-Glc] | significant increases; also recorded: lower than that of 6′-SL | relatively low compared with 6′-SL | – | much improved skin
